Laboratory results published in patent publication US8148392B2, “2-indolyl imidazo [4,5-d] phenanthroline derivatives and their use in the treatment of cancer” (Lorus Therapeutics Inc., priority 2005, dated 2012).
“Also recorded” adds a separate entry of the source. Read-outs that look alike come from different tables or passages of the source.

Columns and labels:
HT-29 cells = test: Effect of exogenous metals on growth inhibition of HT-29 cells (XTT); assay type: cell-based, human; details: HT-29, 5 days
Protocol: To determine whether metal chelation is involved in the growth inhibitory activity of compounds of Formula I, exogenous metals (ZnCl2, FeCl2.4H2O, FeCl3.4H2O, MgCl2, at 100 μM) were incubated with HT-29 cells, simultaneously with control vehicle DMSO, compound 3 (5 μM), or compound 13 (25 μM), for 5 days. […] Growth inhibition by compound 13 is predicted to occur through a different mechanism than compound 3.
To determine whether chelation of copper is involved in the growth inhibitory activity of compounds of Formula I, HT-29 cells were incubated with up to 5 μM of compound 3, in the presence or absence of 25 μM CuSO4.5H20 for 5 days.
To determine whether metal chelation is involved in the growth inhibitory activity of compound 3, various concentrations of exogenous metals were incubated with HT-29 cells, simultaneously with various concentrations of compound 3, for 5 days. The exogenous metals tested were: ZnCl2 (zinc), CuSO4.5H20 (copper), FeCl2 (iron II), FeCl3.4H20 (iron III), MgCl2 (magnesium), and CaCl2.2H20 (calcium). HT-29 cells (4×10^3/well) in 100 μL volume of the growth medium were seeded in 96-well cell culture plates and incubated overnight at 37° C. The medium was removed and replaced with a total volume of 100 μl growth medium containing concentrations of metal ions as shown in FIG. 5 with compound 3 or 0.1% DMSO vehicle control. After incubation of the cells at 37° C. for 5 days, cell viability was quantitated using the XTT (sodium 3′-[1-(phenylamino-carbonyl)-3,4-tetrazolium}-bis (4-methoxy-6-nitro) benzene sulfonic acid hydrate) calorimetric assay (Roche Applied Science, Penzberg, Germany). XTT labeling reagent (1 mg/mL) was mixed with electron-coupling reagent, following the manufacturer's instructions, and 50 μl of the mixture was added directly to the cells cultured in 100 μl growth medium. The plates were further incubated at 37° C. for 4 hours and the absorbance of each well was measured by a multi-well spectrophotometer (Bio-Tek Instruments Inc.) at 460 nm. The data were adjusted relative to the blank, and were expressed as % of cell growth compared to the DMSO control.
To determine the ability of compounds 5 and 7 to chelate metals in cells, exogenous metals were added to HT-29 cells, simultaneously with various concentrations of compounds 5 and 7. Briefly, HT-29 cells were treated with various concentrations compounds 5 and 7, plus or minus copper (25 μM CuSO4.5H20) or zinc (100 μM of ZnCl2), for 5 days. Cell viability was determined by XTT assay. The effects of copper and zinc on growth inhibition of HT-29 cells are shown in FIG. 6A for compound 5 and in FIG. 6B for compound 7.
Effect of metal ion supplements on compound 3-mediated cell growth inhibition of HT-29 cells was examined by XTT cell proliferation assay.

[1] = test system: human lung NCI-H460 cells; test: Large-cell lung carcinoma NCI-H460 xenograft model, tumour growth; assay type: in vivo, CD-1 female nude mice; details: Lutrol (i.p.), lipid-based (i.v.) or water-based (i.p.) formulations
Protocol: The ability of compounds of Formula I to inhibit large-cell lung tumour growth in vivo was tested by determining the efficacy of compound 3 in a xenograft model as described below. Compound 3 was tested as a lipid-based formulation having the following composition: distearoylphosphatidylethanolamine-polyethylene glycol 2000 (DSPE-PEG/5% mole) and egg phosphatidylcoline (ePC/95% mole). The formulation was prepared as follows: Stock solutions of compound 3 and lipid (ePC and DSPE-PEG) were prepared in DMF. Specific volumes of the stock solutions of compound 3 and lipid were then mixed in order to achieve a final lipid concentration of 25 mg/mL (ePC:DSPE-PEG=95:5 (mol %) and a compound 3 to total lipid ratio of 1:10 (w/w). The mixture was stirred for four hours, thoroughly dried under nitrogen and left overnight under vacuum. HEPES buffer saline (HBS 0.01 M, pH=7.4) warmed to 60° C. was then added in order to rehydrate the dried film. The solutions were vortexed, stirred for 48 hours at room temperature and sonicated for two and half hours. The formulation was then centrifuged at 1000 rpm for 5 minutes to remove any free compound 3.
CD-1 female nude mice (6-7 weeks, 7 mice per treatment group) were injected […] with human lung NCI-H460 cells (3×10^6 cells in 0.1 ml PBS) subcutaneously. Treatment of the mice with vehicle or compound 3 was initiated 5 days post-inoculation (size of tumours=20-40 mm^3) for 7-day cycles of five days followed by a 2 day break for the duration of the experiment (35 days). Mice were treated with 80 mg/kg/d for the first week followed by 40 mg/kg/d until the end of the experiment. The size of the tumours was measured over the course of the experiment using calipers, and the weight of the tumours was measured after the animals were sacrificed.
The ability of compounds 3, 5, and 7 to inhibit large-cell lung carcinoma cell growth in vivo was tested in the mouse xenograft model as described in Example 27. The compounds were tested as Lutrol formulations (administered i.p.), lipid-based formulations micelles (administered i.v.), or water-based formulations (administered i.p.). The vehicle controls included Lutrol control (administered i.p.), lipid micelle control (administered i.v.), and water control (administered i.p.). Lutrol formulations contained 15% Lutrol and 10% DMSO. The composition of the lipid-based formulations and preparation of same was as described in Example 27 above.

[2] = test system: human colon carcinoma HT-29 cells; test: XTT cell proliferation assay, HT-29; assay type: cell-based; details: Homo sapiens, HT-29, XTT, read-out: IC50
Protocol: The ability of compounds of Formula I to inhibit the proliferation of human colon carcinoma HT-29 cells was tested as follows. HT-29 colon carcinoma cells used in this example and subsequent examples were maintained as a monolayer in a growth medium; McCoy's 5A modified medium (Sigma, St. Louis, Mo.), supplemented with 2 mM L-glutamine (Gibco, Grand Island, N.Y.), 10% fetal bovine serum (FBS) (Multicell, WISENT Inc. St-Bruno, QC), antibiotic-antimycotic (Multicell), at 37° C. in a 5% CO2-humidified incubator. Cells were transferred onto 150 mm tissue culture plates and grown until sub-confluency (70-80%) prior to their use. The in vitro antiproliferative activity of compounds was evaluated by incubating the cells with varying concentrations of the compounds as shown in Table 1 for 6-7 days. The efficacy of these compounds in this cell proliferation assay was measured based in the ability of live cells to reduce the tetrazolium salt XTT to orange colored compounds of formazan (XTT cell proliferation kit II, Roche Applied Science, Montreal, QC).
The ability of compounds of Formula I to inhibit the proliferation of human colon carcinoma HT-29 cells was tested as described above in Example 13.
Cell growth inhibition IC50 (μM) by compounds of Formula I was tested on various cancer cell types by XTT cell proliferation assay. The growth inhibitory effects of the compounds of Formula I as shown below for the melanoma cell line SK-MEL-2 were reproducible by Lorus Therapeutics Inc.

[3] = assay type: in vivo; details: i.p. twice per day for 1 week
Protocol: To test the sub-acute toxicity of the compounds of Formula I, female mice were injected with the compounds and toxicity was evaluated based on mortality, changes in behaviour, appearance and weight. Briefly, ICR normal female mice (5-6 weeks old; n=33) weighing about 0.020 kg in body weight, were injected with various compounds at 100 mg/kg and 50 mg/kg or with the vehicle alone (Lutrol (M68, micronized)). Groups of 3 ICR female mice were injected with one intra-peritoneal (i.p.) injection of 250 μl of each compound at 4.0 mg/ml twice per day (100 mg/kg) for 1 week (Group I); or with one intra-peritoneal (i.p.) injection of 250 μl of each compound at 2.0 mg/ml twice per day (50 mg/kg) for 1 week (Group II), or with one intra-peritoneal (i.p.) injection of 250 μl of lutrol vehicle control twice per day for 1 week (Control Group).
The compounds to be tested were prepared to provide enough for one week at concentrations of 4.0 mg/ml and 2.0 mg/ml. Briefly, 50 mg of each compound was dissolved in 1.25 ml of 100% DMSO and diluted with 6.25 ml of Lutrol (30% in water) and 5 ml water, to prepare a solution of 4 mg/ml compound in 15% Lutrol in water. Next, 4 ml of each prepared solution was further diluted with 4 ml of 15% Lutrol in water to provide the 2.0 mg/ml solution of each compound. For the vehicle control solution, 8 ml of 15% Lutrol in water was prepared. Compounds at concentrations of 4.0 mg/ml and 2.0 mg/ml and the vehicle control were administered as described above.

supercoiled plasmid DNA = test: In vitro DNA cleavage assay; assay type: biochemical; details: 25 μM compound, 10 μM CuSO4, 100 μM ascorbic acid, 37° C., 30 minutes
Protocol: Compound 3 was tested for its ability to cleave plasmid DNA in vitro in the presence of copper and the reducing agent ascorbic acid. Experiments were performed in a total of 20 μl, containing 10 mM NaH2PO4/Na2HPO4 buffer (pH 6.7), 1 μg of supercoiled plasmid DNA, 100 μM ascorbic acid, 25 μM drug compound (or vehicle), and 10 μM of CuSO4.5H20. The reaction mixture was incubated at 37° C. for 30 minutes, and 1 μl of 0.1 M EDTA was added to terminate the reaction. DNA loading buffer was added, and reactions were run at 80V for 80 minutes on a 1% agarose gel containing ethidium bromide.
To determine whether ions other than copper could suffice, DNA cleavage reactions were also carried out in the presence of zinc or iron. Reactions were performed as above, in the presence of 25 μM of CuSO4.5H20, ZnCl2, or FeCl2.4H20. […] Note that copper alone in the presence of ascorbic acid can shift the ratio of supercoiled DNA to open circular DNA.
To determine the ratios of compound to copper at which compound 3 was effective, reactions were performed as in FIG. 22A. The ratios of compound 3 to copper of 3:1, 2.5:1, 2:1, 1.5:1, and 1:1, as shown in FIG. 23 were achieved by maintaining the concentration of Cu constant at 10 μM, and varying the concentration of compound 3. The ratios of compound 3 to Cu of 1:1.5, 1:2, 1:2.5, and 1:3, were achieved by maintaining the concentration of compound 3 constant at 10 μM, and varying the concentration of copper.
Other compounds of Formula I, compounds 5, 7, 9 and 13 were also tested for their ability to cleave DNA at a ratio of 2.5:1 to copper (FIG. 23). Ratios of compound 3:copper as indicated, plus concentrations of copper in the absence of compound 3 were used in the DNA cleavage assay as described above.

[4] = test system: normal cell lines PrEC, HMEC, WI38 and cancer cell lines DU145, MDA-MB-435, HT-29; test: Cancer cell selectivity, IC90 in normal versus cancer cell lines (XTT); assay type: cell-based, human; details: average IC90 of all normal / average IC90 of all cancer cell lines, 6 to 7 days
Description: An exemplary method of assessing the differential sensitivity between normal and cancer cells for a compound has been described by Vassilev et al. (Anti-Cancer Drug Design (2001) 16:7). This method involves the comparison of IC90 values, i.e. the molar concentration of a test compound required to cause 90% growth inhibition of exponentially growing cells. Thus, the IC90 values for candidate compounds can be evaluated in various cancer cell lines (such as those outlined above) and normal cells (such as HUVEC and/or WI38 cells) and compared. IC90 values can be measured using a variety of standard techniques as known in the art. Cancer cell selectivity is calculated as a ratio between the average IC90 for all normal cell lines and the average IC90 for all cancer cell lines. Compounds with an IC90 ratio (normal/cancer) of >4 are considered to be selective for cancer cells (L. T. Vassilev et al., Anti-cancer Drug Design, 2001, 16: 7-17).
The normal cells lines used were PrEC (prostate), HMEC (breast), and WI38 (lung fibroblast) cell lines and the cancer cells lines were DU145 (prostate), MDA-MB-435 (breast), HT-29 (colon). IC90 values were also determined for the controls doxorubicin and etoposide. The cells were cultured as generally described in Example 13. Various concentrations of the compounds were incubated with the cells for 6 to 7 days, and the number of proliferating cells was measured using the XTT assay. Cancer cell selectivity was calculated as a ratio between the average IC90 for all normal and the average IC90 for all cancer cell lines.

Row | SMILES | IC50 ([2]; 6-7 days, Table 3) [nM] | IC50 ([2]; as Example 13, Table 7) [µg/mL] | Sub-acute toxicity ([3]; 50 mg/Kg) | Sub-acute toxicity ([3]; 100 mg/Kg) | cleavage of plasmid DNA (supercoiled plasmid DNA) | Normal/cancer IC90 ratio [4] | further results
1 | Cc1[nH]c2ccc(Cl)cc2c1-c1nc2c3cccnc3c3ncccc3c2[nH]1 [Compound 5] | 350 | 0.35 |  |  |  |  | effect of exogenous copper on growth inhibition (HT-29 cells; 25 μM CuSO4, low concentrations of compound (less than 2 μM)): copper impaired the activity only at low concentrations; effect of exogenous zinc on growth inhibition (HT-29 cells; ZnCl2 (100 μM)): zinc impaired the growth inhibitory activities; tumour size and weight [1]: able to decrease the size (FIG. 16A) and weight (FIG. 16B) of tumours
2 | c1ccc2c(-c3nc4c5cccnc5c5ncccc5c4[nH]3)c(-c3ccncc3)[nH]c2c1 [Compound 11] | > 2500 | > 2.5 | − | + |  |  | 
3 | c1ccc2c(-c3nc4c5cccnc5c5ncccc5c4[nH]3)c(CN3CCCCC3)[nH]c2c1 [Compound 12] | 280 | 0.28 | − | + | capable of cleaving DNA |  | 
4 | Cc1[nH]c2ccccc2c1-c1nc2c3ccccc3c3ccccc3c2[nH]1 [Compound 13, reference compound] |  |  |  |  | unable to cleave DNA |  | effect of exogenous metals on activity of the negative control (HT-29 cells; compound 13 25 μM): None of the metals had any effect; also recorded: Copper had no effect on growth inhibition
5 | COc1cccc2c1C(=O)c1c(O)c3c(c(O)c1C2=O)C[C@@](O)(C(=O)CO)C[C@@H]3O[C@H]1C[C@H](N)[C@H](O)[C@H](C)O1 [Doxorubicin, doxorubicin, reference compound] |  |  |  |  |  | 5.6 | 
6 | COc1cc([C@@H]2c3cc4c(cc3[C@@H](O[C@@H]3O[C@@H]5CO[C@@H](C)O[C@H]5[C@H](O)[C@H]3O)[C@H]3COC(=O)[C@H]23)OCO4)cc(OC)c1O [Etoposide, etoposide, reference compound] |  |  |  |  |  | >5.0 | 
